# Measurements from patent publication US20150133509A1, “TREE TRUNK INJECTION” (NIPPON SODA CO., LTD., priority 2012, published 2015).
# Read-outs that look alike come from different tables or passages of the source.
# Key:
# Raffaelea quercivora = test: Flat plate antifungal test (PDA medium); format: cell-based; settings: for inhibition at 1 ppm / inhibition at 10 ppm / inhibition at 100 ppm / inhibition at 0.01 ppm / inhibition at 0.1 ppm: Dryadomyces quercivorus, read-out: Inhibition rate of hyphal elongation; for antifungal effect on Raffaelea quercivora at low concentrations: concentrations of less than about 1 ppm; for inhibition at 0.01 ppm: 0.01 ppm in PDA medium
# Procedure: The tree trunk injection agents was obtained by dissolving triflumizole to be each concentration of 100 ppm 10 ppm, 1 ppm, 0.1 pmm, and 0.01 ppm in solution for PDA (potato dextrose agar) medium. These tree trunk injection agents were poured into Petri dishes with inner diameter of 9 cm, and allowed to solidify to produce plate mediums with diameter of 9 cm. In this medium, the flora disk of Raffaelea quercivora was plated. This was cultured statically for 3 days to 4 days at 25° C. Then, the diameter of the flora was measured, and the inhibition rate of hyphal elongation was calculated. The inhibition rate of hyphal elongation (%) was calculated based on the formula: ((flora diameter of untreated group−flora diameter of medium containing triflumizole)/flora diameter of untreated group)×100.
# [1] = test system: fungi which cause Laurel wilt; settings: Non-Patent Document 1; cited from earlier work
# [2] = 1 ppm in PDA medium, 3 to 4 days at 25° C.
# [3] = 10 ppm in PDA medium, 3 to 4 days at 25° C.
# [4] = 100 ppm in PDA medium, 3 to 4 days at 25° C.
# [5] = 0.1 ppm in PDA medium, 3 to 4 days at 25° C.
smiles,measurement,setting,value
CCCCC(O)(Cn1cncn1)c1ccc(Cl)cc1Cl (stereo not shown) [hexaconazole],inhibition at 1 ppm,Raffaelea quercivora; [2],33%
same,inhibition at 10 ppm,Raffaelea quercivora; [3],98%
same,inhibition at 100 ppm,Raffaelea quercivora; [4],100%
same,antifungal effect on Raffaelea quercivora at low concentrations,Raffaelea quercivora,not exhibited any antifungal effect
CC1(C)CCC(Cc2ccc(Cl)cc2)C1(O)Cn1cncn1 (stereo not shown) [metconazole],inhibition at 0.01 ppm,Raffaelea quercivora; 3 to 4 days at 25° C.,35%
same,inhibition at 0.1 ppm,Raffaelea quercivora; [5],59%
same,inhibition at 1 ppm,Raffaelea quercivora; [2],97%
same,inhibition at 10 ppm,Raffaelea quercivora; [3],98%
same,inhibition at 100 ppm,Raffaelea quercivora; [4],100%
CCCCC(C#N)(Cn1cncn1)c1ccc(Cl)cc1 (stereo not shown) [myclobutanil],inhibition at 1 ppm,Raffaelea quercivora; [2],44%
same,inhibition at 10 ppm,Raffaelea quercivora; [3],96%
same,inhibition at 100 ppm,Raffaelea quercivora; [4],100%
same,antifungal effect on Raffaelea quercivora at low concentrations,Raffaelea quercivora,not exhibited any antifungal effect
CCCC1COC(Cn2cncn2)(c2ccc(Cl)cc2Cl)O1 (stereo not shown) [propiconazole],effectiveness for fungi which cause Laurel wilt,[1],highly effective
FC(F)C(F)(F)OCC(Cn1cncn1)c1ccc(Cl)cc1Cl (stereo not shown) [tetraconazole],inhibition at 1 ppm,Raffaelea quercivora; [2],60%
same,inhibition at 10 ppm,Raffaelea quercivora; [3],100%
same,inhibition at 100 ppm,Raffaelea quercivora; [4],100%
same,antifungal effect on Raffaelea quercivora at low concentrations,Raffaelea quercivora,not exhibited any antifungal effect
CCCOC/C(=N\c1ccc(Cl)cc1C(F)(F)F)n1ccnc1 [triflumizole],inhibition at 0.01 ppm,Raffaelea quercivora; 3 to 4 days at 25° C.,25%
same,inhibition at 0.1 ppm,Raffaelea quercivora; [5],95%
same,inhibition at 1 ppm,Raffaelea quercivora; [2],96%
same,inhibition at 10 ppm,Raffaelea quercivora; [3],100%
same,inhibition at 100 ppm,Raffaelea quercivora; [4],100%
O=CNC(N1CCN(C(NC=O)C(Cl)(Cl)Cl)CC1)C(Cl)(Cl)Cl (stereo not shown) [triforine],inhibition at 0.1 ppm,Raffaelea quercivora,0%
same,inhibition at 1 ppm,Raffaelea quercivora,0%
same,inhibition at 10 ppm,Raffaelea quercivora,26%
same,inhibition at 100 ppm,Raffaelea quercivora,100%
same,antifungal effect on Raffaelea quercivora at low concentrations,Raffaelea quercivora,not exhibited any antifungal effect
